Legend:
[1] = molecular target: T1, iodide transport in rat thyroid-derived cell lines (FRTL5) (Rattus norvegicus, UniProt Q63008); conditions: reported in literature (N. Lecat-Guillet et al., 2008); read-out: IC50, iodide uptake in FRTL5 cells; cited from earlier work
T1 construct: host or cells: FRTL5 (rat thyroid-derived cells), endogenous NIS
T1 sequence (Q63008 1-618): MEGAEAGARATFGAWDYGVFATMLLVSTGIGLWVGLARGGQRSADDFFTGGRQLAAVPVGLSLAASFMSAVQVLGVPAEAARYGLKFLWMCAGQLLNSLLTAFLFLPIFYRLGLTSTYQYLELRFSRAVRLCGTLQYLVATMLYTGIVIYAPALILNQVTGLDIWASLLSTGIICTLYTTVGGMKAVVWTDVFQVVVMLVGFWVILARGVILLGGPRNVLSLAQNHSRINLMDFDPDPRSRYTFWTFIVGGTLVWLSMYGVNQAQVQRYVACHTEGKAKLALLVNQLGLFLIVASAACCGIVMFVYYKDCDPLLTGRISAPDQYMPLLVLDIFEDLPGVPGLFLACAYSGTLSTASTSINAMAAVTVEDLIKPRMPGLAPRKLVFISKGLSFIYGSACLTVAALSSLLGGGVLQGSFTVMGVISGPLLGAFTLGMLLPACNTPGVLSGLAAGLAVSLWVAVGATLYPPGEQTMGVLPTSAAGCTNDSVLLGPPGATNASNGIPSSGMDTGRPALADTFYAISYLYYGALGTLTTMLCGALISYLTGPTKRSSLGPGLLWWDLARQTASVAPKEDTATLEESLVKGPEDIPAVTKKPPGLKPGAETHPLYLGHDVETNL

[2] = molecular target: T2, sodium iodide symporter (NIS), iodide transport in FRTL5 cells (Rattus norvegicus, UniProt Q63008); conditions: F. Waltz et al., Anal. Biochem., 2010; read-out: IC50, competitive inhibition of iodide transport in FRTL5 cells; cited from earlier work
T2 construct: host or cells: FRTL5 (rat thyroid-derived cells), endogenous NIS
T2 sequence (Q63008 1-618): T1 sequence (Q63008 1-618)

hNIS-HEK293 cells = molecular target: T3, hNIS-HEK293 cells (Homo sapiens, UniProt Q92911); conditions: cited from earlier work
T3 construct: host or cells: HEK293 stably expressing human NIS
T3 sequence (Q92911 1-643): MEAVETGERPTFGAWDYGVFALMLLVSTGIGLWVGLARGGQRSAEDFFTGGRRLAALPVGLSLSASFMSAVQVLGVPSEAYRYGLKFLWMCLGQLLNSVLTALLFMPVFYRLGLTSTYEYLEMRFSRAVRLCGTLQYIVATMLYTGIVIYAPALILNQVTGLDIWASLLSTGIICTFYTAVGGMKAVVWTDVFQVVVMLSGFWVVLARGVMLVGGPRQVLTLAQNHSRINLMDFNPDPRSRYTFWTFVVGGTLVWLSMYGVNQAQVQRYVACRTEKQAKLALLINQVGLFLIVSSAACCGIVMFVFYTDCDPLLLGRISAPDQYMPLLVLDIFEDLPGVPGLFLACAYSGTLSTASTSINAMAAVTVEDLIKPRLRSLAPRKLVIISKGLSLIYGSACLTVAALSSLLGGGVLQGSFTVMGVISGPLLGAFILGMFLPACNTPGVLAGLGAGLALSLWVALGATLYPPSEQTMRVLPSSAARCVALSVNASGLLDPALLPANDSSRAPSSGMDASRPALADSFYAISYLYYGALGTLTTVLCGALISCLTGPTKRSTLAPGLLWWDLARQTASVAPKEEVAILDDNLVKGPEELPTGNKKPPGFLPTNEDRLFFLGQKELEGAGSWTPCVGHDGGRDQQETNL

[3] = concentration up to 200 μM; cited from earlier work
[4] = molecular target: T4, sodium iodide symporter (NIS), iodide uptake in FRTL5 cells (Rattus norvegicus, UniProt Q63008); experiment: Inhibition of iodide uptake in FRTL5 cells, non radioactive arsenic/cerium assay; format: cell-based; conditions: Table 5, variations at Y, R1, R3, R4, R5; averaged from two to four independent experiments; NaI 10 μM, 1 hour, 20°C; read-out: IC50 (μM), inhibitory activity against iodide uptake in FRTL5 cells
T4 construct: endogenous in cells; host or cells: FRTL5 (rat thyroid-derived cells)
T4 sequence (Q63008 1-618): T1 sequence (Q63008 1-618)
Procedure: Some of the synthesized compounds were evaluated for their ability to inhibit iodide entrapment in FRTL5 cells. The IC50 values were measured in at least […] independent experiments.
The biological activity of each compound was determined in FRTL5 cells, using a non radioactive arsenic/cerium assay as described in F. Waltz et al., Anal. Biochem., 2012, 396, 91-95. Compound potency was expressed as IC50, the concentration of compound necessary to achieve 50% inhibition of iodide uptake. Briefly, to FRTL5 cells at 70-90% confluence was added compound (200 μM, 10 μM, 0.5 μM, 25 nM, 1.2 nM, 60 pM, […], and 0.15 pM final), followed by NaI (10 μM final). After 1 hour incubation at 20±1° C., supernatant was removed and the cells were immediately assayed for iodide content using the modified As/Ce Sandell-Kolthoff reaction. NaClO4 was tested in each microplate as assay controls. The IC50 values of all compounds were measured least thrice independently.
Stock solutions of tested compounds were prepared in DMSO (20 mM) and that of NaClO4 in water (20 mM). These stock solutions were stored at 4° C. for up to 2 months. Sample dilutions: the day of the assay, a daughter plate (clear flat-bottomed 96-well polystyrene microplates, Costar 9017) was prepared from 20 mM stock solutions. NaClO4 (column 2) and DHPM samples (columns 4 to 11) were diluted at 10× the final concentration in uptake buffer.
FRTL5 cells were cultured as described in F. S. Ambesi-Impiombato et al., Proc. Natl. Acad. Sci. USA, 1980, 77, 3455-3459. Briefly, FRTL5 cells were cultured in Coon's modified F12 medium supplemented with 5% heat-inactivated fetal bovine serum (Invitrogen), 2 mM L-glutamine, 100 U/mL penicillin, 0.1 mg/mL streptomycin, 10 μg/mL insulin, 10 nM hydrocortisone, 10 ng/mL Gly-His-Lys acetate, 1 mU/mL TSH, 5 μg/mL transferrin at 37° C. and 5% CO2. For iodide uptake assays, 200 μL of FRTL5 cells with density of 250,000 cells/mL were dispensed in each well of clear flat-bottomed 96-well polystyrene microplates (Costar 3628) using the Multidrop 384 (ThermoFisher Scientific), and further cultured until confluence reached 80-90% (3-4 days).
The culture medium of FRTL5 monolayer cells at 80-90% confluence was replaced by uptake buffer (20° C.) via continuous aspiration/dispense cycle (600 μL) using a 96-needle head plate washer PW 384 (Tecan). The 96-needle head was set to a vertical position such that 80 μL of fresh uptake buffer remained in each well at the end of the cycle. The samples (10 μL each) from the daughter plate were transferred all at once to the assay plate using the 96-tip head pipettor Liquidator 96 (Mettler Toledo). Immediately after, 10 μL of a NaI solution at 100 μM was added to each well of the assay plate using the Liquidator 96. The assay plate was left to stand in the dark at 20±1° C. for 60 min. The assay plate was then washed with cold (4° C.) uptake buffer using the PW 384 plate washer and residual supernatant was immediately discarded by inverting the assay plate on absorbent paper.
Sodium iodide standards (S1 to S7) and water (S0) were distributed in duplicate (100 μL each) in the first and last column of the assay plate. Water (100 μL) was added to the columns with the Multidrop 384. 100 μL of the ammonium cerium (IV) sulfate solution (10.5 mM) was distributed into the columns, followed by 100 μL of the sodium arsenite (III) solution (24 mM) using the Multidrop 384. The assay plate was left to stand at 20±1° C. for 30 min. The absorbance at 420 nm (Abs420) was immediately recorded on a SpectraMax Plus 384 (Molecular Devices). A calibration curve was prepared for each plate by plotting the logarithmic conversion of the means of Abs420 (n=2) vs iodide standard concentrations (S0 to S7). The iodide concentrations in the samples were determined after linear regression of the calibration curve.

| Compound | IC50 [2] | melting point | other results |
| --- | --- | --- | --- |
| F[B-](F)(F)c1ccc(OCc2ccccc2)cc1 [ITB11] |  |  | IC50 [1]: 400 nM |
| F[B-](F)(F)F [BE4^−] | 750 nM |  |  |
| O=[N+]([O-])O [NO3^−] | 250000 nM |  |  |
| COc1ccc(COC(=O)C2=C(C)NC(=O)NC2c2ccccc2)cc1 (stereo not drawn) [Compound 1, 4-methoxybenzyl 6-methyl-2-oxo-4-phenyl-1,2,3,4-tetrahydropyrimidine-5-carboxylate] |  | 162 to 164 °C | Efflux of iodide from preloaded hNIS-HEK293 cells (hNIS-HEK293 cells): can trigger a rapid efflux of iodide; Cytotoxicity [3]: not found cytotoxic |
| [O-][Cl+3]([O-])([O-])O [ClO4^−] | 140 nM |  |  |
| F[P-](F)(F)(F)(F)F [PF6^−] | 9 nM |  |  |
| CC1=C(C(=O)OCc2ccc3c(c2)OCO3)C(c2ccco2)NC(=O)N1C (stereo not drawn) [Compound 60, Benzo[d][1,3]dioxol-5-ylmethyl 4-(furan-2-yl)-1,6-dimethyl-2-oxo-1,2,3,4-tetrahydropyrimidine-5-carboxylate] |  | 141 to 143 °C | IC50 [4]: 0.073 µM |
| COc1cccc(COC(=O)C2=C(C)N(C)C(=O)NC2c2ccco2)c1 (stereo not drawn) [Compound 56, 3-Methoxybenzyl 4-(furan-2-yl)-1,6-dimethyl-2-oxo-1,2,3,4-tetrahydropyrimidine-5-carboxylate] |  | 155 to 156 °C | IC50 [4]: 0.075 µM |
